Laboratory results published in US6258840A, “Analogues or derivatives of quercetin (prodrugs)” (Cobra Therapeutics Limited, priority 1996, dated 2001).
Counter-ions that a name gives are not always drawn. Like-named read-outs stand apart in the source and are kept apart here. Blank lines part the entries; values can stand above or below the compound they belong to.

Columns and labels:
[1] = Stability to Human Plasma (HPLC, 37° C.); format: in vitro ADME; details: for half-life: 0.02 ml of 6.3 mg/ml prodrug solution added to 2.5 ml plasma
Procedure: Freshly prepared plasma (2.5 ml) was incubated at 37° C. and 0.02 ml of a 6.3 mg/ml solution of the prodrug compound in water was added. Aliquots of plasma were taken for HPLC analysis at zero time and at intervals thereafter. Samples were quenched with chilled methanol, the resulting precipitate was centrifuged at 4° C. at 800 rpm for 5 minutes, and the supernatant was analysed by HPLC.

[2] = pharmaceutically acceptable solvents; cited from earlier work
[3] = test system: calcium- and phospholipid dependent protein kinase (protein kinase C); details: in vitro; cited from earlier work
[4] = test system: calcium- and phospholipid dependent protein kinase (protein kinase C); details: in vivo; cited from earlier work
[5] = test system: antiproliferative activity of cis-diaminedichloroplatinum II (cis-DDP); details: in vitro, with cis-DDP; cited from earlier work
[6] = test system: antiproliferative activity of cis-diaminedichloroplatinum II (cis-DDP); details: in vivo, with cis-DDP; cited from earlier work

pH of solution in water (10 mg/ml solution in water): approximately 7
period for which the solution is stable (10 mg/ml solution in water, -20° C.): at least 12 weeks
pH of solution in dextrose (diluted into dextrose, final prodrug concentration 1 mg/ml): approximately 6
Compound: 3'/4'-((N-Carboxymethyl)carbamoyloxy)-3,4'(3'),5,7-tetrahydroxy-flavone, N-Methyl-D-glucamine salt

Compound: O=C(O)CNC(=O)Oc1cc(-c2oc3cc(O)cc(O)c3c(=O)c2O)ccc1O [3' carbamate ester, 3'-((N-Carboxymethyl)carbamoyloxy)-3,4',5,7-tetrahydroxyflavone, N-Methyl-D-glucamine salt]
conversion into Quercetin [1]: converted into Quercetin
half-life [1]: ~60 min

Compound: O=C(O)CNC(=O)Oc1ccc(-c2oc3cc(O)cc(O)c3c(=O)c2O)cc1O [4' carbamate ester]
conversion into Quercetin [1]: converted into Quercetin
half-life [1]: ~60 min

Compound: O=c1c(O)c(-c2ccc(O)c(O)c2)oc2cc(O)cc(O)c12 [Quercetin, 3,3',4',5,7-pentahydroxyflavone]
solubility [2]: limited solubility
inhibition of protein kinase C activity [3]: inhibit the activity
inhibition of protein kinase C activity [4]: inhibit the activity
enhancement of antiproliferative activity of cis-DDP [5]: synergistically enhances the antiproliferative activity
enhancement of antiproliferative activity of cis-DDP [6]: synergistically enhances the antiproliferative activity
